According to patent publication US5385908A, “Hindered esters of rapamycin” (American Home Products Corporation, priority 1993, dated 1995):
pIC50: −log10 of the molar value. Where a name gives a salt, the structure may show the parent alone. Read-outs that look alike come from different tables or passages of the source.

Columns and labels:
[1] = system: immune mediated inflammation (uninjected hind paw); test: adjuvant arthritis standard pharmacological test procedure; assay type: in vivo, male inbread Wistar Lewis rats; conditions: for Percent change in adjuvant arthritis versus control: 2 mg/kg oral
Procedure: (§1) Immunosuppressive activity for representative compounds of this invention was evaluated in an in vitro standard pharmacological test procedure to measure lymphocyte proliferation (LAF) and in three in vivo standard pharmacological test procedures. The pinch skin graft test procedure measures the immunosuppressive activity of the compound tested as well as the ability of the compound tested to inhibit or treat transplant rejection. The adjuvant arthritis standard pharmacological test procedure, which measures the ability of the compound tested to inhibit immune mediated inflammation. The adjuvant arthritis test procedure is a standard pharmacological test procedure for rheumatoid arthritis. Representative compounds of this invention were also evaluated in a heart allograft standard pharmacological test procedure which measures immunosuppressive activity of the compound tested as well as the ability of the compound tested to inhibit or treat transplant rejection. The procedures for these standard pharmacological test procedures are provided below.
The adjuvant arthritis standard pharmacological test procedure measures the ability of test compounds to prevent immune mediated inflammation and inhibit or treat rheumatoid arthritis. The following briefly describes the test procedure used. A group of rats (male inbread Wistar Lewis rats) are pre-treated with the compound to be tested (1 h prior to antigen) and then injected with Freud's Complete Adjuvant (FCA) in the right hind paw to induce arthritis. The rats are then orally dosed on a Monday, Wednesday, Friday schedule from day 0-14 for a total of 7 doses. Both hind paws are measured on days 16, 23, and 30. The difference in paw volume (mL) from day 16 to day 0 is determined and a percent change from control is obtained. […] The right hind paw inflammation, on the other hand, is caused by nonspecific inflammation. Compounds were tested at a dose of 2 mg/kg.

[2] = system: cells from the thymus of normal BALB/c mice (lymphocyte proliferation); test: comitogen-induced thymocyte proliferation procedure (LAF); assay type: cell-based; conditions: read-out: LAF IC50
Procedure: as §1
The comitogen-induced thymocyte proliferation procedure (LAF) was used as an in vitro measure of the immunosuppressive effects of representative compounds. Briefly, cells from the thymus of normal BALB/c mice are cultured for 72 hours with PHA and IL-1 and pulsed with tritiated thymidine during the last six hours. Cells are cultured with and without various concentrations of rapamycin, cyclosporin A, or test compound. Cells are harvested and incorporated radioactivity is determined. Inhibition of lymphoproliferation is assessed as percent change in counts per minute from non-drug treated controls. For each compound evaluated, rapamycin was also evaluated for the purpose of comparison. An IC50 was obtained for each test compound as well as for rapamycin. […] The results obtained are provided as an IC50.

pinch skin graft = pinch skin graft survival test procedure; assay type: in vivo, male BALB/c donors transplanted to male C3H(H-2K) recipients; conditions: 4 mg/kg, intraperitoneally or orally; mean ± S.D.; untreated rejected within 6-7 days
Procedure: as §1
Representative compounds of this invention were also evaluated in an in vivo test procedure designed to determine the survival time of pinch skin graft from male BALB/c donors transplanted to male C3 H(H-2K) recipients. The method is adapted from Billingham R. E. and Medawar P. B., J. Exp. Biol. 28:385-402, (1951 ). Briefly, a pinch skin graft from the donor was grafted on the dorsum of the recipient as a allograft, and an isograft was used as control in the same region. The recipients were treated with either varying concentrations of test compounds intraperitoneally or orally. Rapamycin was used as a test control. Untreated recipients serve as rejection control. The graft was monitored daily and observations were recorded until the graft became dry and formed a blackened scab. This was considered as the rejection day. The mean graft survival time (number of days±S.D.) of the drug treatment group was compared with the control group. […] Results are expressed as the mean survival time in days. Untreated (control) pinch skin grafts are usually rejected within 6-7 days. Compounds were tested using a dose of 4 mg/kg.

[3] = system: experimental allergic encephalomyelitis; conditions: model for multiple sclerosis; cited from earlier work
IgE-like antibodies = conditions: in vivo; cited from earlier work
Candida albicans = conditions: in vitro and in vivo; cited from earlier work
heart allograft = test: heterotropic heart allograft standard pharmacological test procedure; assay type: in vivo, BN rat neonate donors, male Lewis rat recipients; conditions: untreated rejected in about 9-10 days
Procedure: as §1
The ability of the compounds of this invention to induce immunosuppression and inhibit or treat transplantation rejection was evaluated in a heterotropic heart allograft standard pharmacological test procedure that emulates transplantation rejection that occurs in humans. The following briefly describes the procedure that was used. […]

[4] = Mus musculus, Lymphocyte, PHA and IL-1, 72 hours culture, tritiated thymidine last six hours

SMILES | Percent change in adjuvant arthritis versus control ([1]; day 16) [%] | pIC50 [2, 4] | Skin graft survival (mean survival time) (pinch skin graft) [days] | other results
CO[C@H]1C[C@@H]2CC[C@@H](C)[C@@](O)(O2)C(=O)C(=O)N2CCCC[C@H]2C(=O)O[C@H]([C@H](C)C[C@@H]2CC[C@@H](OC(=O)C(C)(C)Cc3cccnc3)[C@H](OC)C2)CC(=O)[C@H](C)/C=C(\C)[C@@H](O)[C@@H](OC)C(=O)[C@H](C)C[C@H](C)/C=C/C=C/C=C/1C [Example 3, Rapamycin 42-ester with 2,2-dimethyl-3-(3-pyridinyl) propionic acid hydrochloride salt] |  |  |  | Percent change in adjuvant arthritis versus control ([1]; day 16, hydrochloride salt): -73%; pIC50 ([2]; PHA and IL-1, 72 hours culture, tritiated thymidine last six hours, hydrochloride salt): 8.99
CO[C@H]1C[C@@H]2CC[C@@H](C)[C@@](O)(O2)C(=O)C(=O)N2CCCC[C@H]2C(=O)O[C@H]([C@H](C)C[C@@H]2CC[C@@H](OC(=O)C3(C)CCN(C)CC3)[C@H](OC)C2)CC(=O)[C@H](C)/C=C(\C)[C@@H](O)[C@@H](OC)C(=O)[C@H](C)C[C@H](C)/C=C/C=C/C=C/1C [Example 12, Rapamycin 42-ester with 1,4-dimethylpiperidine-4-carboxylic acid] | -75 | 9.24 | 12.83 ± 1.47 | 
CO[C@H]1C[C@@H]2CC[C@@H](C)[C@@](O)(O2)C(=O)C(=O)N2CCCC[C@H]2C(=O)O[C@H]([C@H](C)C[C@@H]2CC[C@@H](O)[C@H](OC)C2)CC(=O)[C@H](C)/C=C(\C)[C@@H](O)[C@@H](OC)C(=O)[C@H](C)C[C@H](C)/C=C/C=C/C=C/1C [rapamycin] |  |  |  | effect in experimental allergic encephalomyelitis model (in words) [3]: effective in the experimental allergic encephalomyelitis model; inhibition of formation of IgE-like antibodies (in words) (IgE-like antibodies): effectively inhibited the formation of IgE-like antibodies; antifungal activity (in words) (Candida albicans): antifungal activity, particularly against Candida albicans, both in vitro and in vivo; less immune induced inflammation than control rats ([1]; rapamycin treated rats, day 16): 70-90%; pIC50 ([2]; Mus musculus, Lymphocyte): 8.72 to 9.30
CO[C@H]1C[C@@H]2CC[C@@H](C)[C@@](O)(O2)C(=O)C(=O)N2CCCC[C@H]2C(=O)O[C@H]([C@H](C)C[C@@H]2CC[C@@H](OC(=O)C(C)(C)CCc3ccccn3)[C@H](OC)C2)CC(=O)[C@H](C)/C=C(\C)[C@@H](O)[C@@H](OC)C(=O)[C@H](C)C[C@H](C)/C=C/C=C/C=C/1C [Example 5, Rapamycin 42-ester with 2,2-dimethyl-4-(2-pyridinyl) butyric acid] | -75 | 9.24 |  | 
CO[C@H]1C[C@@H]2CC[C@@H](C)[C@@](O)(O2)C(=O)C(=O)N2CCCC[C@H]2C(=O)O[C@H]([C@H](C)C[C@@H]2CC[C@@H](OC(=O)C(C)(C)CCCc3cccnc3)[C@H](OC)C2)CC(=O)[C@H](C)/C=C(\C)[C@@H](O)[C@@H](OC)C(=O)[C@H](C)C[C@H](C)/C=C/C=C/C=C/1C [Example 6, Rapamycin 42-ester with 2,2-dimethyl-5-(3-pyridinyl) pentanoic acid] | -45 | 8.52 | 12.50 ± 0.55 | 
CO[C@H]1C[C@@H]2CC[C@@H](C)[C@@](O)(O2)C(=O)C(=O)N2CCCC[C@H]2C(=O)O[C@H]([C@H](C)C[C@@H]2CC[C@@H](OC(=O)C(C)(C)CCc3cccnc3)[C@H](OC)C2)CC(=O)[C@H](C)/C=C(\C)[C@@H](O)[C@@H](OC)C(=O)[C@H](C)C[C@H](C)/C=C/C=C/C=C/1C [Example 8, Rapamycin 42-ester with 2,2-dimethyl-4-(3-pyridinyl) butyric acid] | -50 | 8.92 |  | 
CO[C@H]1C[C@@H]2CC[C@@H](C)[C@@](O)(O2)C(=O)C(=O)N2CCCC[C@H]2C(=O)O[C@H]([C@H](C)C[C@@H]2CC[C@@H](OC(=O)C(C)(C)Cc3ccncc3)[C@H](OC)C2)CC(=O)[C@H](C)/C=C(\C)[C@@H](O)[C@@H](OC)C(=O)[C@H](C)C[C@H](C)/C=C/C=C/C=C/1C [Example 9, Rapamycin 42-ester with 2,2-dimethyl-3-(4-pyridinyl) propionic acid] | -73 | 9.08 | 11.17 ± 1.47 | 
CO[C@H]1C[C@@H]2CC[C@@H](C)[C@@](O)(O2)C(=O)C(=O)N2CCCC[C@H]2C(=O)O[C@H]([C@H](C)C[C@@H]2CC[C@@H](OC(=O)C3(C)CCCCN3C(=O)c3ccccc3)[C@H](OC)C2)CC(=O)[C@H](C)/C=C(\C)[C@@H](O)[C@@H](OC)C(=O)[C@H](C)C[C@H](C)/C=C/C=C/C=C/1C (stereo partly shown) [Example 13, Rapamycin 42-ester with 1-benzoyl-2-methyl-piperidine-2-carboxylic acid] |  | 8.54 |  | 
CO[C@H]1C[C@@H]2CC[C@@H](C)[C@@](O)(O2)C(=O)C(=O)N2CCCC[C@H]2C(=O)O[C@H]([C@H](C)C[C@@H]2CC[C@@H](OC(=O)C(C)(C)Cc3cccnc3)[C@H](OC)C2)CC(=O)[C@H](C)/C=C(\C)[C@@H](O)[C@@H](OC)C(=O)[C@H](C)C[C@H](C)/C=C/C=C/C=C/1C [Example 2, Rapamycin 42-ester with 2,2-dimethyl-3-(3-pyridinyl) propionic acid] | -62 | 9.08 | 13.6 ± 0.6 | Heart allograft (mean graft survival time) (heart allograft; i.p., 300 μg/day): 29 days; Heart allograft (mean graft survival time) (heart allograft; p.o.): 11.5 days
CO[C@H]1C[C@@H]2CC[C@@H](C)[C@@](O)(O2)C(=O)C(=O)N2CCCC[C@H]2C(=O)O[C@H]([C@H](C)C[C@@H]2CC[C@@H](OC(=O)C(C)(C)Cc3ccccn3)[C@H](OC)C2)CC(=O)[C@H](C)/C=C(\C)[C@@H](O)[C@@H](OC)C(=O)[C@H](C)C[C@H](C)/C=C/C=C/C=C/1C [Example 7, Rapamycin 42-ester with 2,2-dimethyl-3-(2-pyridinyl) propionic acid] | -78 | 9.22 |  | 
